Data reported in ChEMBL document CHEMBL4665863 (Bioorg Med Chem, 2020).
≈ marks a conversion by molar mass, not a printed value.

How the values were obtained:
Assay type in all cases: functional
Bacillus subtilis = test: Antibacterial activity against Bacillus subtilis ATCC9372 incubated for 24 hrs by CLSI-based broth microdilution method
Escherichia coli = test: Antibacterial activity against Escherichia coli ATCC25922 incubated for 24 hrs by CLSI-based broth microdilution method; conditions: ATCC 25922
Staphylococcus aureus [1] = test: Antibacterial activity against penicillin-resistant Staphylococcus aureus incubated for 24 hrs by CLSI-based broth microdilution method
Staphylococcus aureus [2] = test: Antibacterial activity against methicillin-resistant Staphylococcus aureus ATCC43300 incubated for 24 hrs by CLSI-based broth microdilution method
Pseudomonas aeruginosa = test: Antibacterial activity against Pseudomonas aeruginosa ATCC27853 incubated for 24 hrs by CLSI-based broth microdilution method
Staphylococcus aureus [3] = test: Antibacterial activity against Staphylococcus aureus ATCC25923 incubated for 24 hrs by CLSI-based broth microdilution method
Bacillus pumilus = test: Antibacterial activity against Bacillus pumilus CMCC63202 incubated for 24 hrs by CLSI-based broth microdilution method

SMILES | MIC (Bacillus subtilis) [µg/mL] | MIC (Escherichia coli) [µg/mL] | MIC (Staphylococcus aureus [1]) [µg/mL] | MIC (Staphylococcus aureus [2]) [µg/mL] | MIC (Pseudomonas aeruginosa) [µg/mL] | MIC (Staphylococcus aureus [3]) [µg/mL] | MIC (Bacillus pumilus) [µg/mL]
CCc1ccc(C2=NOC(COc3ccc(F)c(C(N)=O)c3F)C2)cc1 (stereo not drawn) | 0.5 (≈ 1.39 µM) | > 64 | 16 (≈ 44.4 µM) | 8 (≈ 22.2 µM) | > 64 | 8 (≈ 22.2 µM) | 2 (≈ 5.55 µM)
CCCCCc1ccc(C2=NOC(COc3ccc(F)c(C(N)=O)c3F)C2)cc1 (stereo not drawn) | 0.5 (≈ 1.24 µM) | > 64 | > 64 | > 64 | > 64 | > 64 | ≤ 0.125
CCOc1ccc(C2CC(COc3ccc(F)c(C(N)=O)c3F)=NO2)cc1 (stereo not drawn) | 16 (≈ 42.5 µM) | > 64 | > 64 | 64 (≈ 170 µM) | > 64 | > 64 | 64 (≈ 170 µM)
CCCCc1ccc(C2CC(COc3ccc(F)c(C(N)=O)c3F)=NO2)cc1 (stereo not drawn) | ≤ 0.125 | > 64 | 4 (≈ 10.3 µM) | 4 (≈ 10.3 µM) | > 64 | 8 (≈ 20.6 µM) | 0.5 (≈ 1.29 µM)
CCc1ccc(C2CC(COc3ccc(F)c(C(N)=O)c3F)=NO2)cc1 (stereo not drawn) | 4 (≈ 11.1 µM) | > 64 | > 64 | 64 (≈ 178 µM) | > 64 | 64 (≈ 178 µM) | 16 (≈ 44.4 µM)
CC(C)c1ccc(C2=NOC(COc3ccc(F)c(C(N)=O)c3F)C2)cc1 (stereo not drawn) | ≤ 0.125 | > 64 | 16 (≈ 42.7 µM) | 4 (≈ 10.7 µM) | > 64 | 4 (≈ 10.7 µM) | ≤ 0.125
Cc1cccc(C2CC(COc3ccc(F)c(C(N)=O)c3F)=NO2)c1 (stereo not drawn) | 64 (≈ 185 µM) | > 64 | > 64 | > 64 | > 64 | > 64 | > 64
NC(=O)c1c(F)ccc(OCC2CC(c3ccc(C4CCCCC4)cc3)=NO2)c1F (stereo not drawn) | > 64 | > 64 | > 64 | > 64 | > 64 | > 64 | > 64
CCCOc1ccc(C2=NOC(COc3ccc(F)c(C(N)=O)c3F)C2)cc1 (stereo not drawn) | 4 (≈ 10.2 µM) | > 64 | > 64 | > 64 | > 64 | > 64 | 4 (≈ 10.2 µM)
NC(=O)c1c(F)ccc(OCC2CC(c3cccc(Cl)c3)=NO2)c1F (stereo not drawn) | 2 (≈ 5.45 µM) | > 64 | 32 (≈ 87.3 µM) | 32 (≈ 87.3 µM) | > 64 | 16 (≈ 43.6 µM) | 8 (≈ 21.8 µM)
CC(C)c1ccc(C2CC(COc3ccc(F)c(C(N)=O)c3F)=NO2)cc1 (stereo not drawn) | 4 (≈ 10.7 µM) | > 64 | > 64 | 64 (≈ 171 µM) | > 64 | 64 (≈ 171 µM) | 8 (≈ 21.4 µM)
CC(C)(C)c1ccc(C2CC(COc3ccc(F)c(C(N)=O)c3F)=NO2)cc1 (stereo not drawn) | 2 (≈ 5.15 µM) | > 64 | 32 (≈ 82.4 µM) | 32 (≈ 82.4 µM) | > 64 | 64 (≈ 165 µM) | 4 (≈ 10.3 µM)
COc1cccc(C2CC(COc3ccc(F)c(C(N)=O)c3F)=NO2)c1 (stereo not drawn) | > 64 | > 64 | > 64 | > 64 | > 64 | > 64 | > 64
NC(=O)c1c(F)ccc(OCC2CC(c3ccc(Cl)cc3Cl)=NO2)c1F (stereo not drawn) | 4 (≈ 9.97 µM) | > 64 | 32 (≈ 79.8 µM) | 32 (≈ 79.8 µM) | > 64 | 16 (≈ 39.9 µM) | 2 (≈ 4.99 µM)
NC(=O)c1c(F)ccc(OCC2CC(c3ccc(F)cc3)=NO2)c1F (stereo not drawn) | 8 (≈ 22.8 µM) | > 64 | 64 (≈ 183 µM) | 64 (≈ 183 µM) | > 64 | 64 (≈ 183 µM) | 32 (≈ 91.4 µM)
Cc1cccc(C2=NOC(COc3ccc(F)c(C(N)=O)c3F)C2)c1 (stereo not drawn) | 16 (≈ 46.2 µM) | > 64 | 64 (≈ 185 µM) | 16 (≈ 46.2 µM) | > 64 | 32 (≈ 92.4 µM) | 8 (≈ 23.1 µM)
NC(=O)c1c(F)ccc(OCC2CC(c3ccccc3Cl)=NO2)c1F (stereo not drawn) | 16 (≈ 43.6 µM) | > 64 | > 64 | > 64 | > 64 | > 64 | 64 (≈ 175 µM)
NC(=O)c1c(F)ccc(OCC2CC(c3ccc(Cl)cc3)=NO2)c1F (stereo not drawn) | 8 (≈ 21.8 µM) | > 64 | 32 (≈ 87.3 µM) | 32 (≈ 87.3 µM) | > 64 | 32 (≈ 87.3 µM) | 8 (≈ 21.8 µM)
COc1cccc(C2=NOC(COc3ccc(F)c(C(N)=O)c3F)C2)c1 (stereo not drawn) | 8 (≈ 22.1 µM) | > 64 | > 64 | > 64 | > 64 | > 64 | 32 (≈ 88.3 µM)
Cc1ccc(C2=NOC(COc3ccc(F)c(C(N)=O)c3F)C2)cc1 (stereo not drawn) | 16 (≈ 46.2 µM) | > 64 | > 64 | 32 (≈ 92.4 µM) | > 64 | 32 (≈ 92.4 µM) | 16 (≈ 46.2 µM)
NC(=O)c1c(F)ccc(OCC2CC(c3ccco3)=NO2)c1F (stereo not drawn) | 64 (≈ 199 µM) | > 64 | > 64 | > 64 | > 64 | > 64 | > 64
CCCOc1ccc(C2CC(COc3ccc(F)c(C(N)=O)c3F)=NO2)cc1 (stereo not drawn) | 8 (≈ 20.5 µM) | > 64 | > 64 | 64 (≈ 164 µM) | > 64 | > 64 | 32 (≈ 82 µM)
CCOc1ccc(C2=NOC(COc3ccc(F)c(C(N)=O)c3F)C2)cc1 (stereo not drawn) | 4 (≈ 10.6 µM) | > 64 | > 64 | 64 (≈ 170 µM) | > 64 | 64 (≈ 170 µM) | 16 (≈ 42.5 µM)
NC(=O)c1c(F)ccc(OCC2=NOC(c3ccc(Br)cc3)C2)c1F (stereo not drawn) | 8 (≈ 19.5 µM) | > 64 | > 64 | 32 (≈ 77.8 µM) | > 64 | > 64 | 32 (≈ 77.8 µM)
Cc1ccc(C2CC(COc3ccc(F)c(C(N)=O)c3F)=NO2)cc1 (stereo not drawn) | 16 (≈ 46.2 µM) | > 64 | > 64 | > 64 | > 64 | > 64 | 64 (≈ 185 µM)
CCOc1cccc(C2=NOC(COc3ccc(F)c(C(N)=O)c3F)C2)c1 (stereo not drawn) | 4 (≈ 10.6 µM) | > 64 | 32 (≈ 85 µM) | 32 (≈ 85 µM) | > 64 | 32 (≈ 85 µM) | 8 (≈ 21.3 µM)
COc1ccc(C2=NOC(COc3ccc(F)c(C(N)=O)c3F)C2)cc1 (stereo not drawn) | 8 (≈ 22.1 µM) | > 64 | > 64 | > 64 | > 64 | > 64 | 32 (≈ 88.3 µM)
CN(C)c1ccc(C2=NOC(COc3ccc(F)c(C(N)=O)c3F)C2)cc1 (stereo not drawn) | 16 (≈ 42.6 µM) | > 64 | > 64 | > 64 | > 64 | > 64 | 64 (≈ 170 µM)
NC(=O)c1c(F)ccc(OCC2CC(c3ccccc3)=NO2)c1F (stereo not drawn) | 16 (≈ 48.1 µM) | > 64 | > 64 | > 64 | > 64 | > 64 | 64 (≈ 193 µM)
